# Results as given in patent publication US20060040871A1, “Bacterial transforming agent” (priority 2003, published 2006).
# Read-outs that look alike come from different tables or passages of the source.
# How the values were obtained:
# MRSA [1] = test: Antimicrobial plus BTA against recent clinical MRSA isolates (Table 7); assay type: cell-based, Staphylococcus aureus
# Source text: The four clinical isolates were isolated from patients during the first three months of 2003. […] An intermediate MRSA has been included, as methicillin-resistance has been achieved by means other than production of PBP2a.
# [2] = system: MRSA with intermediate resistance to glycopeptides; test: MIC of vancomycin or teicoplanin for MRSA with intermediate resistance to glycopeptides grown with GBE or NAGly (Table 4); assay type: cell-based, Staphylococcus aureus; conditions: GBE 0.001M; for MIC: Staphylococcus aureus
# S. aureus = test: MIC of methicillin for already sensitive S. aureus with GBE, with or without 1% human plasma (Table 6); assay type: cell-based, Staphylococcus aureus; conditions: for MIC of methicillin: GBE 0.00075M [0.15%]
# Source text: As previously mentioned, a common cause of auto-infection is due to S. aureus carried on the anterior nares. […] The transforming agents of the present invention may also be used in combination with a suitable antimicrobial to eliminate nasal carriage of MSSA prior to cardiac surgery or other invasive procedures carrying a high risk of auto-infection.
# MRSA [3] = test: MIC of ceftazidime or cefuroxime for MRSA grown with or without GBE (Table 2); assay type: cell-based, Staphylococcus aureus; conditions: for MIC of ceftazidime / MIC of cefuroxime: GBE (0.2%)
# Source text: Importantly, the usefulness of the agents of the present invention is not limited to increasing bacterial sensitivity to methicillin.
# MRSA [4] = conditions: increasing concentrations of glycine in the growth medium; cited from earlier work
compound,measurement,setting,value
"NCC(=O)OCc1ccccc1 [GBE, Glycine Benzyl Ester]","Oxacillin (antimicrobial plus BTA; quantity not named, MIC implied)","MRSA [1]; EMRSA-16, +BTA 0.01%",4 µg/mL
same,"Cephalexin (antimicrobial plus BTA; quantity not named, MIC implied)","MRSA [1]; EMRSA-16, +BTA 0.1%",2 µg/mL
same,"Oxacillin (antimicrobial plus BTA; quantity not named, MIC implied)","MRSA [1]; EMRSA-16, +BTA 0.1%",2 µg/mL
same,"Cephalexin (antimicrobial plus BTA; quantity not named, MIC implied)","MRSA [1]; EMRSA-16, +BTA 1.0%",1 µg/mL
same,"Oxacillin (antimicrobial plus BTA; quantity not named, MIC implied)","MRSA [1]; EMRSA-16, +BTA 1.0%",1 µg/mL
same,"Vancomycin (antimicrobial plus BTA; quantity not named, MIC implied)","MRSA [1]; EMRSA-16, +BTA 1.0%",0.25 µg/mL
same,"Oxacillin (antimicrobial plus BTA; quantity not named, MIC implied)","MRSA [1]; EMRSA-17, +BTA 0.01%",6 µg/mL
same,"Cephalexin (antimicrobial plus BTA; quantity not named, MIC implied)","MRSA [1]; EMRSA-17, +BTA 0.1%",2 µg/mL
same,"Oxacillin (antimicrobial plus BTA; quantity not named, MIC implied)","MRSA [1]; EMRSA-17, +BTA 0.1%",2 µg/mL
same,"Cephalexin (antimicrobial plus BTA; quantity not named, MIC implied)","MRSA [1]; EMRSA-17, +BTA 1.0%",1.5 µg/mL
same,"Oxacillin (antimicrobial plus BTA; quantity not named, MIC implied)","MRSA [1]; EMRSA-17, +BTA 1.0%",1.5 µg/mL
same,"Vancomycin (antimicrobial plus BTA; quantity not named, MIC implied)","MRSA [1]; EMRSA-17, +BTA 1.0%",0.25 µg/mL
same,"Oxacillin (antimicrobial plus BTA; quantity not named, MIC implied)","MRSA [1]; I-MRSA, +BTA 0.01%",2 µg/mL
same,"Cephalexin (antimicrobial plus BTA; quantity not named, MIC implied)","MRSA [1]; I-MRSA, +BTA 0.1%",1 µg/mL
same,"Oxacillin (antimicrobial plus BTA; quantity not named, MIC implied)","MRSA [1]; I-MRSA, +BTA 0.1%",1 µg/mL
same,"Cephalexin (antimicrobial plus BTA; quantity not named, MIC implied)","MRSA [1]; I-MRSA, +BTA 1.0%",0.75 µg/mL
same,"Oxacillin (antimicrobial plus BTA; quantity not named, MIC implied)","MRSA [1]; I-MRSA, +BTA 1.0%",0.75 µg/mL
same,"Vancomycin (antimicrobial plus BTA; quantity not named, MIC implied)","MRSA [1]; I-MRSA, +BTA 1.0%",< 0.25 µg/mL
same,MIC of vancomycin,"[2]; L266 (first line), EMRSA-17 (VISA)",2 µg/mL
same,MIC of vancomycin,"[2]; L266 (second line), EMRSA-17 (VISA)",1 µg/mL
same,MIC of vancomycin,[2]; NCTC 12493,0.12 µg/mL
same,MIC,"[2]; MRSA / NCTC 12493, read-out: MIC of teicoplanin, NCTC 12493",0.06 µg/mL
same,MIC,"[2]; MRSA, read-out: MIC of teicoplanin, L265, EMRSA-16 (TISA)",1 µg/mL
same,MIC,"[2]; MRSA, read-out: MIC of teicoplanin, L266, EMRSA-16 (TISA)",2 µg/mL
same,MIC of methicillin,"S. aureus; 5518 (EMRSA-1), no plasma",<0.25 µg/mL
same,MIC of methicillin,"S. aureus; 5518 (EMRSA-1), plasma (1%)",0.5 µg/mL
same,MIC of methicillin,"S. aureus; LHS77, no plasma",<0.25 µg/mL
same,MIC of methicillin,"S. aureus; LHS77, plasma (1%)",<0.25 µg/mL
same,MIC of methicillin,"S. aureus; LHS78, no plasma",<0.25 µg/mL
same,MIC of methicillin,"S. aureus; LHS78, plasma (1%)",1 µg/mL
same,MIC of methicillin,"S. aureus; LHS79, no plasma",<0.25 µg/mL
same,MIC of methicillin,"S. aureus; LHS79, plasma (1%)",0.25 µg/mL
same,MIC of methicillin,"S. aureus; LHS80, no plasma",<0.25 µg/mL
same,MIC of methicillin,"S. aureus; LHS80, plasma (1%)",0.25 µg/mL
same,MIC of methicillin,"S. aureus; LHS81, no plasma",<0.25 µg/mL
same,MIC of methicillin,"S. aureus; LHS81, plasma (1%)",<0.25 µg/mL
same,MIC of methicillin,"S. aureus; LHS82, no plasma",<0.25 µg/mL
same,MIC of methicillin,"S. aureus; LHS82, plasma (1%)",4 µg/mL
same,MIC of methicillin,"S. aureus; LHS83, no plasma",<0.25 µg/mL
same,MIC of methicillin,"S. aureus; LHS83, plasma (1%)",0.25 µg/mL
same,MIC of methicillin,"S. aureus; LHS84, no plasma",<0.25 µg/mL
same,MIC of methicillin,"S. aureus; LHS84, plasma (1%)",2 µg/mL
same,MIC of methicillin,"S. aureus; LHS85, no plasma",<0.25 µg/mL
same,MIC of methicillin,"S. aureus; LHS85, plasma (1%)",0.5 µg/mL
same,MIC of methicillin,"S. aureus; LHS86, no plasma",<0.25 µg/mL
same,MIC of methicillin,"S. aureus; LHS86, plasma (1%)",0.25 µg/mL
same,MIC of methicillin,"S. aureus; LHS87, no plasma",<0.25 µg/mL
same,MIC of methicillin,"S. aureus; LHS87, plasma (1%)",4 µg/mL
same,MIC of methicillin,"S. aureus; LHS88, no plasma",<0.25 µg/mL
same,MIC of methicillin,"S. aureus; LHS88, plasma (1%)",0.5 µg/mL
same,MIC of methicillin,"S. aureus; LHS89, no plasma",<0.25 µg/mL
same,MIC of methicillin,"S. aureus; LHS89, plasma (1%)",0.5 µg/mL
same,MIC of methicillin,"S. aureus; LHS90, no plasma",<0.25 µg/mL
same,MIC of methicillin,"S. aureus; LHS90, plasma (1%)",<0.25 µg/mL
same,MIC of methicillin,"S. aureus; LHS91, no plasma",<0.25 µg/mL
same,MIC of methicillin,"S. aureus; LHS91, plasma (1%)",<0.25 µg/mL
same,MIC of methicillin,"S. aureus; LHS92, no plasma",<0.25 µg/mL
same,MIC of methicillin,"S. aureus; LHS92, plasma (1%)",1 µg/mL
same,MIC of methicillin,"S. aureus; LHS93, no plasma",<0.25 µg/mL
same,MIC of methicillin,"S. aureus; LHS93, plasma (1%)",0.5 µg/mL
same,MIC of methicillin,"S. aureus; LHS94, no plasma",<0.25 µg/mL
same,MIC of methicillin,"S. aureus; LHS94, plasma (1%)",0.5 µg/mL
same,effect on methicillin sensitivity of already sensitive bacteria,S. aureus; Table 6,increases the sensitivity of already sensitive bacteria to methicillin
same,MIC of ceftazidime,MRSA [3]; CD40 (EMRSA-1),4 µg/mL
same,MIC of cefuroxime,MRSA [3]; CD40 (EMRSA-1),2 µg/mL
same,MIC of ceftazidime,MRSA [3]; DS09 (EMRSA-1),2 µg/mL
same,MIC of cefuroxime,MRSA [3]; DS09 (EMRSA-1),2 µg/mL
same,MIC of ceftazidime,MRSA [3]; E15-97 (EMRSA-15),4 µg/mL
same,MIC of cefuroxime,MRSA [3]; E15-97 (EMRSA-15),4 µg/mL
same,MIC of ceftazidime,MRSA [3]; E16-96 (EMRSA-16),2 µg/mL
same,MIC of cefuroxime,MRSA [3]; E16-96 (EMRSA-16),4 µg/mL
same,MIC of ceftazidime,MRSA [3]; JF1-32 (EMRSA-1),2 µg/mL
same,MIC of cefuroxime,MRSA [3]; JF1-32 (EMRSA-1),2 µg/mL
same,MIC of ceftazidime,MRSA [3]; MC01 (EMRSA-1),2 µg/mL
same,MIC of cefuroxime,MRSA [3]; MC01 (EMRSA-1),4 µg/mL
same,MIC of ceftazidime,MRSA [3]; NCTC 12493,2 µg/mL
same,MIC of cefuroxime,MRSA [3]; NCTC 12493,4 µg/mL
same,MIC of ceftazidime,MRSA [3]; PS3-32 (EMRSA-1),4 µg/mL
same,MIC of cefuroxime,MRSA [3]; PS3-32 (EMRSA-1),4 µg/mL
same,MIC of ceftazidime,MRSA [3]; SN31 (EMRSA-1),4 µg/mL
same,MIC of cefuroxime,MRSA [3]; SN31 (EMRSA-1),4 µg/mL
same,MIC of ceftazidime,MRSA [3]; ST11 (EMRSA-1),2 µg/mL
same,MIC of cefuroxime,MRSA [3]; ST11 (EMRSA-1),2 µg/mL
same,MIC of ceftazidime,MRSA [3]; SW2-32 (EMRSA-1),4 µg/mL
same,MIC of cefuroxime,MRSA [3]; SW2-32 (EMRSA-1),4 µg/mL
same,transformation to ceftazidime and cefuroxime sensitivity,MRSA [3]; Table 2,transforms the MRSA tested to ceftazidime and cefuroxime sensitivity
"NCC(=O)O [Glycine, glycine]",effect on MIC of methicillin against MRSA,MRSA [4],reduces the MIC of methicillin against MRSA
